From the supplement of paper PMC10307832

How the values were obtained:
Test in all cases: relative viability (nuclei count vs DMSO), 5 days (fraction); higher = more cells survive
Axitinib + Bortezomib = compound: CNC(=O)c1ccccc1Sc1ccc2c(/C=C/c3ccccn3)n[nH]c2c1 [Axitinib] + CC(C)C[C@H](NC(=O)[C@H](Cc1ccccc1)NC(=O)c1cnccn1)B(O)O [Bortezomib] (partner 0.002 µM)
How it was run: (§1)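 Lung cancer cell lines in 1536-well plates got either a single drug or a fixed anchor-drug dose together with five library-drug doses (not always all listed) in √10 steps, by pin tool, on the day after seeding. Nuclei were counted after 5 days, and relative viability is the treated-to-vehicle ratio of nuclei counts. Values are medians of duplicate plates.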

[1] = compound: CC1=CC=C(C=C1)C(=O)CN2C3=C(CCCC3)SC2=N [Pifithrin_alpha] + CS(=O)(=O)CCNCc1ccc(-c2ccc3ncnc(Nc4ccc(OCc5cccc(F)c5)c(Cl)c4)c3c2)o1 [Lapatinib] (partner 2 µM)
How it was run: as §1

Axitinib + Linsitinib = compound: CNC(=O)c1ccccc1Sc1ccc2c(/C=C/c3ccccn3)n[nH]c2c1 [Axitinib] + C[C@]1(O)C[C@@H](c2nc(-c3ccc4ccc(-c5ccccc5)nc4c3)c3c(N)nccn32)C1 [Linsitinib] (partner 1 µM)
How it was run: as §1

[2] = compound: CC1=CC=C(C=C1)C(=O)CN2C3=C(CCCC3)SC2=N [Pifithrin_alpha] + CC1(C)CCC(c2ccc(Cl)cc2)=C(CN2CCN(c3ccc(C(=O)NS(=O)(=O)c4ccc(N[C@H](CCN5CCOCC5)CSc5ccccc5)c(S(=O)(=O)C(F)(F)F)c4)cc3)CC2)C1 [Navitoclax] (partner 0.5 µM)
How it was run: as §1

| Cell Line | relative viability (Axitinib + Bortezomib; first compound 0.005 µM) | relative viability (Axitinib + Bortezomib; first compound 0.01581 µM) | relative viability (Axitinib + Bortezomib; first compound 0.05 µM) | relative viability (Axitinib + Bortezomib; first compound 0.1581 µM) | relative viability (Axitinib + Bortezomib; first compound 0.5 µM) | relative viability ([1]; first compound 1 µM) | relative viability ([1]; first compound 3.162 µM) | relative viability ([1]; first compound 10 µM) | relative viability ([1]; first compound 31.62 µM) | relative viability ([1]; first compound 100 µM) | relative viability (Axitinib + Linsitinib; first compound 0.005 µM) | relative viability (Axitinib + Linsitinib; first compound 0.01581 µM) | relative viability (Axitinib + Linsitinib; first compound 0.05 µM) | relative viability (Axitinib + Linsitinib; first compound 0.1581 µM) | relative viability (Axitinib + Linsitinib; first compound 0.5 µM) | relative viability ([2]; first compound 1 µM) | relative viability ([2]; first compound 3.162 µM) | relative viability ([2]; first compound 10 µM) | relative viability ([2]; first compound 31.62 µM) | relative viability ([2]; first compound 100 µM) |
| --- | --- | --- | --- | --- | --- | --- | --- | --- | --- | --- | --- | --- | --- | --- | --- | --- | --- | --- | --- | --- |
| NCI-H1299 | 1.05 | 0.989 | 1.07 | 0.976 | 1.06 | 0.976 | 0.985 | 1.02 | 0.73 | 0.947 | 0.962 | 1.03 | 0.978 | 1 | 1.06 | 1.07 | 1.08 | 1 | 0.952 | 1 |
| NCI-H1734 | 0.935 | 0.974 | 0.879 | 1.01 | 1.06 | 1.05 | 1.08 | 0.953 | 0.749 | 1.07 | 1.05 | 0.829 | 0.977 | 0.903 | 1.04 | 0.892 | 0.95 | 0.796 | 0.745 | 0.734 |
| NCI-H1793 | – | – | – | – | – | 0.692 | 0.716 | 0.505 | 0.867 | 0.739 | 0.85 | 0.836 | 0.935 | 1.01 | 0.881 | 0.395 | 0.282 | 0.382 | 0.339 | 0.339 |
| LU99A | 1.1 | 1.09 | 1.13 | 1.12 | 1.12 | 0.852 | 1.21 | 1.12 | – | 1.18 | 0.611 | 0.561 | 0.5 | 0.483 | 0.553 | 0.823 | 0.782 | 0.874 | – | 0.892 |
| NCI-H1437 | 0.515 | 0.542 | 0.55 | 0.446 | 0.589 | 0.946 | 0.809 | 0.898 | 0.507 | 0.377 | 1.02 | 1.07 | 1 | 0.898 | 0.797 | 1.25 | 1.16 | 1.13 | 0.784 | 0.775 |
| NCI-H1395 | – | – | – | – | – | – | 0.797 | 0.967 | 0.663 | 0.814 | 1.2 | 0.913 | 1.37 | 0.97 | 1.18 | – | 1.15 | 1.34 | 0.604 | 1.31 |
| ChaGo-K-1 | 0.953 | 0.919 | 1.13 | 1.05 | 1.16 | – | – | – | – | – | – | – | – | – | – | 0.873 | 0.999 | 0.888 | 0.734 | 0.891 |
| NCI-H358 | – | – | – | – | – | 0.507 | 0.447 | 0.486 | 0.425 | 0.429 | 0.729 | 0.803 | 0.852 | 0.727 | 0.848 | – | – | – | – | – |
| NCI-H1650 | 0.209 | 0.208 | 0.191 | 0.195 | 0.22 | 0.395 | 0.665 | 0.739 | 0.521 | 0.839 | – | – | – | – | – | 1.31 | 1.15 | 0.973 | 0.675 | 0.865 |
| ABC-1 | 0.34 | 0.307 | 0.315 | 0.254 | 0.289 | 1.36 | 1.24 | 0.923 | – | 1.36 | 0.972 | 0.947 | 0.745 | 0.759 | 1.22 | – | – | – | – | – |
| SK-MES-1 | – | – | – | – | – | 0.461 | 0.447 | 0.458 | 0.439 | 0.447 | 1.12 | 1.07 | 1.08 | 1.14 | 1.22 | 1.19 | 1.17 | 1.16 | 0.829 | 0.924 |
| LK-2 | – | – | – | – | – | 0.893 | 1.18 | 0.969 | – | 1.47 | 0.543 | 0.471 | – | 0.439 | 0.415 | 0.862 | 1 | 0.749 | 0.534 | 0.997 |
| NCI-H661 | 0.93 | 0.83 | 0.648 | 0.785 | 0.842 | 0.673 | 0.488 | 0.446 | 0.508 | 0.486 | 0.717 | 0.58 | 0.418 | 0.542 | 0.666 | – | – | – | – | – |
| NCI-H2170 | – | – | – | – | – | 0.263 | 0.274 | 0.287 | 0.266 | 0.263 | – | – | – | – | – | 0.557 | 0.512 | 0.576 | 0.494 | 0.535 |
| LCLC-103H | 1.07 | 1.07 | 1.18 | 1.03 | 1.07 | – | – | – | – | – | 1.27 | 1.08 | 1.05 | 1.05 | 1.03 | – | – | – | – | – |
| NCI-H441 | 0.626 | 0.54 | 0.444 | 0.465 | 0.443 | – | – | – | – | – | 0.593 | 0.52 | 0.519 | 0.582 | 0.576 | 0.652 | 0.813 | 0.587 | 0.481 | 0.831 |
| A549 | – | – | – | – | – | 1.12 | 1 | 0.838 | 0.766 | 0.739 | 0.606 | 0.606 | 0.595 | 0.529 | 0.573 | 1.37 | 1.26 | 1.14 | 0.985 | 1.29 |
| NCI-H1944 | – | – | – | – | – | 0.755 | 0.67 | 0.517 | – | 0.598 | 1.24 | 1.16 | 1.16 | 1.16 | 1.24 | 1.11 | 1.04 | 0.946 | – | 1.02 |
